Like-named read-outs stand apart in the source and are kept apart here.
Assays:
Format in all cases: cell-based, human
[1] = system: IL-10-induced JAK1/TYK2 signal pathway; assay: IL-10-induced JAK1/TYK2 signal pathway STAT3-Luc reporter gene assay in U2OS cells; conditions: U2OS cells, STAT3-Luc reporter, IL-10 10 ng/mL, read-out: Half inhibition dose (IC50) on IL-10-induced JAK1/TYK2 signal pathway
Procedure, shortened: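 U2OS cells co-transfected with IL-10R1-EGFP and STAT3-luciferase reporter plasmids; after 24 h, compound added (0–300 nM) for 6 h before 10 ng/mL human IL-10, then 24 h culture. Luciferase signal normalised to GFP for transfection efficiency; IC50 from inhibition rates.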

[2] = system: IL-2-induced JAK1/JAK3 signal pathway; assay: IL-2-induced proliferation of KHYG-1 cells (JAK1/JAK3 signal); conditions: KHYG-1 cell proliferation, IL-2 10 ng/mL, 72 hours, read-out: Inhibition activity IC50 on IL-2-induced JAK1/JAK3 signal pathway
Procedure, shortened: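 KHYG-1 NK lymphoma cells were cultured with IL-2 and test compound at various doses for 72 h at 37 °C and 5% CO2, and proliferation was read with alamarBlue fluorescence. Inhibition was normalized to wells without compound or cytokine (0%) and IL-2 wells without compound (100%), and C50 was derived from the dose-inhibition data.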

[3] = system: EPO-induced JAK2 signal pathway; assay: EPO-induced proliferation of UT-7 cells (JAK2 signal); conditions: UT-7 cell proliferation, EPO 10 ng/mL, 72 hours, read-out: Inhibition activity IC50 on EPO-induced JAK2 signal pathway
Procedure, shortened: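 UT-7 cells (15000/well) stimulated with 10 ng/mL human recombinant EPO plus compound at final 0, 100, 1000 or 10000 nM, 72 h at 37° C., 5% CO2. Proliferation by alamarBlue fluorescence (Ex530/Em590); inhibition normalised to no-cytokine/no-compound (0) and EPO-only (100) wells, […] derived from dose-inhibition.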

Structure (SMILES) | IC50 ([1]; Homo sapiens, U2OS) | IC50 [1] | IC50 ([2]; Homo sapiens) | IC50 ([3]; Homo sapiens, UT7) | IC50 [2] | IC50 [3] | IC50 ([1]; Homo sapiens)
CCONC(=O)c1cnc(Nc2cc(C)nc(C)n2)cc1Nc1ccc(OC)cc1N(C)S(=O)(=O)C1CC1 [Example 174, 6-((2,6-dimethylpyrimidin-4-yl)amino)-N-ethoxy-4-((4-methoxy-2-(N-methylcyclopropylsulfonamido)phenyl)amino)nicotinamide] | 0.000784 µM |  | > 10 µM | > 10 µM |  |  | 
CCONC(=O)c1cnc(Nc2ccc(C)nn2)cc1Nc1ccc(C2CC2)cc1N(C)S(C)(=O)=O [Example 159, 4-((4-cyclopropyl-2-(N-methylmethanesulfonamido)phenyl)amino)-N-ethoxy-6-((6-methylpyridazin-3-yl)amino)nicotinamide] | 0.000907 µM |  | > 10 µM | > 10 µM |  |  | 
CONC(=O)c1cnc(Nc2cccc(C)n2)cc1Nc1ccccc1N(C)S(C)(=O)=O [Example 102, N-methoxy-4-((2-(N-methylmethanesulfonamido)phenyl)amino)-6-((6-methylpyridin-2-yl)amino)nicotinamide] | 0.000623 µM |  | > 10 µM | > 10 µM |  |  | 
CCONC(=O)c1cnc(NC(=O)C2CC2)cc1Nc1cccc(-c2ncn(C)n2)c1OC [Example 166, 6-(cyclopropylcarboxamido)-N-ethoxy-4-((2-methoxy-3-(1-methyl-1H-1,2,4-triazol-3-yl)phenyl)amino)nicotinamide] | 0.00151 µM |  | > 10 µM | > 10 µM |  |  | 
CCONC(=O)c1cnc(Nc2cc(C)nc(C)n2)cc1Nc1cccc(-c2ncn(C)n2)c1OC [Example 268, 6-((2,6-dimethylpyrimidin-4-yl)amino)-N-ethoxy-4-((2-methoxy-3-(1-methyl-1H-1,2,4-triazol-3-yl)phenyl)amino)nicotinamide] | 0.000315 µM |  | > 10 µM | > 10 µM |  |  | 
CCONC(=O)c1cnc(Nc2cnc(F)c(C)c2)cc1Nc1ccc(C2CC2)cc1N(C)S(C)(=O)=O [Example 235, 4-((4-cyclopropyl-2-(N-methylmethanesulfonamido)phenyl)amino)-N-ethoxy-6-((6-fluoro-5-methylpyridin-3-yl)amino)nicotinamide] | 0.000722 µM |  | > 10 µM | > 10 µM |  |  | 
CCONC(=O)c1cnc(Nc2ccc(C)nn2)cc1Nc1cc(F)c(C2CC2)cc1N(C)S(C)(=O)=O [Example 176, 4-((4-cyclopropyl-5-fluoro-2-(N-methylmethanesulfonamido)phenyl)amino)-N-ethoxy-6-((6-methylpyridazin-3-yl)amino)nicotinamide] | 0.00232 µM |  | > 10 µM | > 10 µM |  |  | 
CCONC(=O)c1cnc(Nc2cccnn2)cc1Nc1ccc(Cl)cc1N(C)S(C)(=O)=O [Example 151, 4-((4-chloro-2-(N-methylmethanesulfonamido)phenyl)amino)-N-ethoxy-6-(pyridazin-3-ylamino)nicotinamide] | 0.00207 µM |  | > 10 µM | > 10 µM |  |  | 
CONC(=O)c1cnc(Nc2cccc(F)n2)cc1Nc1ccc(C)nc1N(C)S(C)(=O)=O [Example 109, 6-((6-fluoropyridin-2-yl)amino)-N-methoxy-4-((6-methyl-2-(N-methylmethanesulfonamido)pyridin-3-yl)amino)nicotinamide] | 0.000733 µM |  | > 10 µM | > 10 µM |  |  | 
CONC(=O)c1cnc(NC(=O)C2CC2)cc1Nc1ccc(C(F)(F)F)cc1N(C)S(C)(=O)=O [Example 10, 6-(cyclopropylcarboxamido)-N-methoxy-4-((2-(N-methylmethanesulfonamido)-4-(trifluoromethyl)phenyl)amino)nicotinamide] |  |  | > 10 µM | > 10 µM |  |  | 0.00118 µM
CCONC(=O)c1cnc(Nc2ncc(F)cc2F)cc1Nc1cccc(-c2ncccn2)c1OC [Example 242, 6-((3,5-difluoropyridin-2-yl)amino)-N-ethoxy-4-((2-methoxy-3-(pyrimidin-2-yl)phenyl)amino)nicotinamide] |  |  | > 10 µM | > 10 µM |  |  | 0.00212 µM

Now from value to compound, other results behind:

IC50 ([1]; Homo sapiens, U2OS) | IC50 [1] | Structure (SMILES) | IC50 ([2]; Homo sapiens) | IC50 ([3]; Homo sapiens, UT7) | IC50 [2] | IC50 [3] | IC50 ([1]; Homo sapiens)
0.00129 µM |  | CONC(=O)c1cnc(Nc2cccc(F)n2)cc1Nc1ccc(OCC2CC2)cc1N(C)S(C)(=O)=O [Example 62, 4-((4-(cyclopropylmethoxy)-2-(N-methylmethanesulfonamido)phenyl)amino)-6-((6-fluoropyridin-2-yl)amino)-N-methoxy nicotinamide] | > 10 µM | > 10 µM |  |  | 
 | 0.00105 µM | CCONC(=O)c1cnc(Nc2cccc(C)n2)cc1Nc1ccc(C2CC2)cc1N(C)S(C)(=O)=O [Example 217, 4-((4-cyclopropyl-2-(N-methylmethanesulfonamido)phenyl)amino)-N-ethoxy-6-((6-methylpyridin-2-yl)amino)nicotinamide] |  |  | > 10 µM | > 10 µM | 
0.000686 µM |  | CONC(=O)c1cnc(Nc2cccc(F)n2)cc1Nc1cccnc1N(C)S(C)(=O)=O [Example 36, 6-((6-fluoropyridin-2-yl)amino)-N-methoxy-4-((2-(N-methylmethanesulfonamido)pyridin-3-yl)amino)nicotinamide] | > 10 µM | > 10 µM |  |  | 
0.000601 µM |  | CCONC(=O)c1cnc(Nc2ccccn2)cc1Nc1ccc(C2CC2)cc1N(C)S(C)(=O)=O [Example 138, 4-((4-cyclopropyl-2-(N-methylmethanesulfonamido)phenyl)amino)-N-ethoxy-6-(pyridin-2-ylamino)nicotinamide] | > 10 µM | > 10 µM |  |  | 
0.00158 µM |  | CONC(=O)c1cnc(NC(=O)C2CC2)cc1Nc1ccccc1N(C)S(C)(=O)=O [Example 2, 6-(cyclopropylcarboxamido)-N-methoxy-4-((2-(N-methylmethanesulfonamido)phenyl)amino)nicotinamide] | > 10 µM | > 10 µM |  |  | 
0.0011 µM |  | CONC(=O)c1cnc(Nc2ccc(F)cn2)cc1Nc1ccc(C2CC2)cc1N(C)S(C)(=O)=O [Example 13, 4-((4-cyclopropyl-2-(N-methylmethanesulfonamido)phenyl)amino)-6-((5-fluoropyridin-2-yl)amino)-N-methoxy nicotinamide] | > 10 µM | > 10 µM |  |  | 
0.00032 µM |  | CCONC(=O)c1cnc(Nc2ccc(C#N)cn2)cc1Nc1ccc(Cl)cc1N(C)S(C)(=O)=O [Example 114, 4-((4-chloro-2-(N-methylmethanesulfonamido)phenyl)amino)-N-ethoxy-6-((5-cyanopyridin-2-yl)amino)nicotinamide] | > 10 µM | > 10 µM |  |  | 
0.0017 µM |  | CONC(=O)c1cnc(Nc2ccc(F)cn2)cc1Nc1ccc(OCC2CC2)cc1N(C)S(C)(=O)=O [Example 61, 4-((4-(cyclopropylmethoxy)-2-(N-methylmethanesulfonamido)phenyl)amino)-6-((5-fluoropyridin-2-yl)amino)-N-methoxy nicotinamide] | > 10 µM | > 10 µM |  |  | 
0.000587 µM |  | CCONC(=O)c1cnc(Nc2cncc(F)c2)cc1Nc1ccc(C2CC2)cc1N(C)S(C)(=O)=O [Example 236, 4-((4-cyclopropyl-2-(N-methylmethanesulfonamido)phenyl)amino)-N-ethoxy-6-((5-fluoropyridin-3-yl)amino)nicotinamide] | > 10 µM | > 10 µM |  |  | 
0.00132 µM |  | CCONC(=O)c1cnc(Nc2cccc(C(F)(F)F)n2)cc1Nc1ccc(C2CC2)cc1N(C)S(C)(=O)=O [Example 220, 4-((4-cyclopropyl-2-(N-methylmethanesulfonamido)phenyl)amino)-N-ethoxy-6-((6-(trifluoromethyl)pyridin-2-yl)amino)nicotinamide] | > 10 µM | > 10 µM |  |  | 
0.000874 µM |  | CONC(=O)c1cnc(Nc2cccc(F)n2)cc1Nc1ccc(C2CC2)cc1N(C)S(C)(=O)=O [Example 14, 4-((4-cyclopropyl-2-(N-methylmethanesulfonamido)phenyl)amino)-6-((6-fluoropyridin-2-yl)amino)-N-methoxy nicotinamide] | > 10 µM | > 10 µM |  |  | 
0.000946 µM |  | CCONC(=O)c1cnc(Nc2cc(C)c(F)cn2)cc1Nc1ccc(C2CC2)cc1N(C)S(C)(=O)=O [Example 125, 4-((4-cyclopropyl-2-(N-methylmethanesulfonamido)phenyl)amino)-N-ethoxy-6-((5-fluoro-4-methylpyridin-2-yl)amino)nicotinamide] | > 10 µM | > 10 µM |  |  | 
0.00151 µM |  | CONC(=O)c1cnc(Nc2cc(C)c(F)cn2)cc1Nc1ccc(C2CC2)cc1N(C)S(C)(=O)=O [Example 110] | > 10 µM | > 10 µM |  |  | 

From patent publication US20240101548A1, “HYDROXAMATE COMPOUND, PREPARATION METHOD THEREFOR AND APPLICATION THEREOF” (SHENZHEN CHIPSCREEN BIOSCIENCES CO., LTD., priority 2020, published 2024)
